This is an account of results in patent US20240226107A1, “UBIQUITIN-SPECIFIC PROTEASE 1 (USP1) INHIBITOR” (SIMCERE ZAIMING PHARMACEUTICAL CO., LTD., priority 2021, published 2024).

pIC50: −log10 of the molar value. Converted amounts (≈) assume the structure as drawn. Bounds are passed on as bounds.

Series [1] addresses CYP2C9 (Homo sapiens (Human), UniProt P11712). The experiment in a line: CYP enzyme inhibition in pooled human liver microsomes (diclofenac sodium). Format: in vitro ADME. The protocol:
(§1) Typical substrate metabolic responses of five major human CYP subtypes (CYP1A2, CYP2C9, CYP2C19, CYP2D6, CYP3A4) were evaluated using 150-donor pooled human liver microsomes (purchased from Corning, Cat. No.: 452117). The influence of different concentrations of each compound to be tested on metabolic responses of phenacetin (CYP1A2), diclofenac sodium (CYP2C9), S-mephenytoin (CYP2C19), bufuralol hydrochloride (CYP2D6), and midazolam (CYP3A4) was determined by liquid chromatography-mass spectrometry (LC/MS/MS). […] Then 200 μL of acetonitrile solution containing 3% formic acid and 40 nM internal standard verapamil was added and centrifuged at 4000 rpm for 50 min. The mixture was cooled on ice for 20 min and centrifuged at 4000 rpm for 20 min to precipitate the protein. Then 200 μL of supernatant was analyzed by LC-MS/MS. The peak area was calculated from the chromatogram. The residual activity ratio (%) was calculated according to the following equation: Peak area ratio=metabolite peak area/internal standard peak area Residual activity ratio (%)=peak area ratio of compounds-to-be-tested group/peak area ratio of blank group The half inhibitory concentration (IC50) for CYP was calculated by Excel XLfit 5.3.1.3.

The target of series [2] is CYP2C19 (Homo sapiens (Human), UniProt P33261). The experiment in a line: CYP enzyme inhibition in pooled human liver microsomes (S-mephenytoin). Format: in vitro ADME. The protocol: as §1
CYP2C19, sequence (P33261 whole entry): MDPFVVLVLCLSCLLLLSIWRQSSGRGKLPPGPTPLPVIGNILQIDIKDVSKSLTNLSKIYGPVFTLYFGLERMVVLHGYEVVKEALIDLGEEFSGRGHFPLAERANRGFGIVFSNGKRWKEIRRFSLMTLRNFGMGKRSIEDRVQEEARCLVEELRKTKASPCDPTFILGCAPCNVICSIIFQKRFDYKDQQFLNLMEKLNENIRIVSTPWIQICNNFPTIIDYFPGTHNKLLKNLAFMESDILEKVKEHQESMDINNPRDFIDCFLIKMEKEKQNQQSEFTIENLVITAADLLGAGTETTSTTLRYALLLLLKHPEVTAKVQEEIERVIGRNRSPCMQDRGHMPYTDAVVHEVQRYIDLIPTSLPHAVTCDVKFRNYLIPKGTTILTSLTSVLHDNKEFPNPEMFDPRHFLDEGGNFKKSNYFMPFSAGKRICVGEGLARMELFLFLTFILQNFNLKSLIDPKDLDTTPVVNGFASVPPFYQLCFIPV
A general note: Liver microsomes are vesicles of endoplasmic reticulum, rich in cytochrome P450 enzymes.

For series [3], the target named is CYP2D6 (Homo sapiens (Human), UniProt P10635). The series can be described thus: CYP enzyme inhibition in pooled human liver microsomes (bufuralol hydrochloride). Format: in vitro ADME. On the procedure: as §1
CYP2D6, sequence (P10635 whole entry): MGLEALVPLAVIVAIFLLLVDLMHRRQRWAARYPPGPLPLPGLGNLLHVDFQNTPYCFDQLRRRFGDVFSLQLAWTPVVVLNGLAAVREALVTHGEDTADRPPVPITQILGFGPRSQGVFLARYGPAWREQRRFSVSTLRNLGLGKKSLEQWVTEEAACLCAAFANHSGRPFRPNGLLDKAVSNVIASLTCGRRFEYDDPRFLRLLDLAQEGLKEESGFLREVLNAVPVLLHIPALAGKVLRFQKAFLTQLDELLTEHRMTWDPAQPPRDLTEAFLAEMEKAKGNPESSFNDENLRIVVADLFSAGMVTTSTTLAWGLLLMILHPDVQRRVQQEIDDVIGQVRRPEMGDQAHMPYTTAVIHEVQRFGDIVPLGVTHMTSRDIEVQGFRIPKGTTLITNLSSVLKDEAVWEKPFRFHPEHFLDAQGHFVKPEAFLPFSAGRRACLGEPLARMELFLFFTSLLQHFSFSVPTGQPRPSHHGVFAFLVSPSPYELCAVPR
Series [4] can be described thus: Caco-2 permeability assay. Format: in vitro ADME. Particulars: human, pH 7.4. Background: Passage across Caco-2 layers is used to estimate intestinal permeability.
Procedure: The apparent permeability coefficient (Papp) of the analytical drug was determined by liquid chromatography-mass spectrometry (LC-MS/MS) through a Caco-2 cell model.
In this test example, Caco-2 cells were purchased from American Type Culture Collection (ATCC); 4-hydroxyethyl piperazine ethane sulfonic acid (HEPES) was purchased from Beijing Solarbio Science & Technology Co., Ltd.; Hanks' balanced salt solution (HBSS) and non-essential amino acids (NEAA) were purchased from ThermoFisher Scientific; penicillin, streptomycin, and trypsin/EDTA were purchased from Solarbio; fetal bovine serum (FBS) and DMEM medium were purchased from Corning; HTS-96-well Transwell plates and other sterile consumables were purchased from Corning; Millicell resistance measuring system was purchased from Millipore; Cellometer®K2 was purchased from Nexcelom Bioscience; Infinite 200 PRO microplate reader was purchased from Tecan; and MTS2/4 orbital shaker was purchased from IKA Labortechnik.
Caco-2 cells were cultured in a culture flask. […] Cells at a confluency of 70-90% can be used to inoculate the Transwell. Prior to cell inoculation, 50 μL of cell culture medium was added to each well of the upper Transwell chamber and 25 mL of cell culture medium was added to the lower plate. The plate was incubated in an incubator (37° C., 5% CO2) for 1 h, and then inoculated with cells. After cell digestion, the cell suspension was pipetted and transferred to a round bottom centrifuge tube for centrifugation at 120 g for 5 min. […] The medium was changed as follows: transwell chambers were separated from the receiver plate, medium in the receiver plate was discarded, then medium in the Transwell chambers was discarded, and finally, 75 μL of fresh medium was added to each chamber, and 25 mL of fresh medium was added to the receiver plate.
After approximately 14 days of culture, the Caco-2 cells reached the confluency and completed differentiation. In this case, the cells can be applied to permeability assay. The monolayer resistance was measured with a resistance meter (Millipore, USA) and the resistance per well was recorded. After the measurement, the Transwell plate was put back to the incubator. Calculation of resistance: measured resistance value (ohms)×membrane area (cm^2)=TEER value (ohm·cm^2); if TEER value <230 ohms·cm^2, the well can not be used for permeability assay.
In 900 mL of purified water, 2.38 g HEPES and 0.35 g sodium bicarbonate were dissolved, then 100 mL of 10×HBSS was added and stirred well, pH was adjusted to 7.4, and finally, the resulting solution was filtered to obtain 1 L of transport buffer (HBSS, 10 mM HEPES, pH 7.4).
A DMSO stock solution of 1 mM of compound to be tested was diluted with the transport buffer to obtain 5 μM test solution. The control compound digoxin or minoxidil was diluted with DMSO to 2 mM, and diluted with the transport buffer described above to 10 μM to obtain a control compound test solution. In addition, DMSO was also diluted with the transport buffer described above to a receiving end solution containing 0.5% DMSO.
The Transwell plate was removed from the incubator. Monolayer cell membranes were rinsed twice with the transport buffer (10 mM HEPES, pH 7.4) and incubated at 37° C. for 30 min.
The transport rate of the compound from the apical side to the basolateral side was determined. […]
The transport rate of the compound from the basolateral side to the apical side was determined.
Series [5] in a line: Solubility (PBS pH 7.4) of compounds from DMSO solution. The series is classed as physicochemical. Particulars: aqueous buffer, kinetic from dmso stock, 10 mM DMSO solution into PBS pH 7.4, 25° C., read-out: Calculated solubility. The protocol:
The solubility (PBS pH 7.4) of a compound to be tested was determined by LC/MS/MS. 6 μL of 10 mM DMSO solution of the compound to be tested was mixed with 194 μL of DMSO to prepare 300 μM compound solution. In 490 μL of water and acetonitrile (1:1) containing an internal standard, 5 μL of the solution and 5 μL of PBS pH 7.4 solution were mixed to prepare 3 μM standard concentration solution of the sample to be tested. The dilution factor of the standard solution can be adjusted according to the strength of response signals in LC/MS.
To 485 μL of PBS pH 7.4 solution, 15 μL of 10 mM DMSO solution of the compound to be tested was added. […] After shaking, the stir bar was removed, and the sample was transferred to a filter plate and filtered using a vacuum manifold. In 490 μL of water and acetonitrile (1:1) containing an internal standard, 5 μL of filtrate and 5 μL of PBS pH 7.4 solution were mixed to prepare a solution to be tested. The dilution factor can be adjusted according to the solubility value and the strength of response signals in LC/MS.
The resulting samples were determined by LC/MS/MS. The sample solubility was calculated from peak areas of the solution of the compound to be tested and the standard concentration solution, according to the following equation:
[formula] • [Sample] is the solubility of the sample to be tested; • Area ratiosample is the ratio of the peak area of sample in the sample to be tested to the peak area of the internal standard; • INJ VOL STD is the injection volume of the standard concentration solution; • DFsample is the dilution factor of the solution of the sample to be tested; • [STD] is the concentration of the standard concentration solution; • INJ VOLsample is the injection volume of the solution of the sample to be tested; and • Area ratio STD is the ratio of the peak area of sample in the standard concentration solution to the peak area of the internal standard.

The nature of series [6]: In vivo pharmacokinetics in SD rats. Particulars: male, rat, plasma. The protocol: Using SD rats as test animals, drug concentrations in plasma of the rats at different times after intravenous injection and intragastric administration of the compounds provided in the present application were determined by LC/MS/MS. In vivo pharmacokinetic behaviors of the compounds provided in the present application in rats were investigated to evaluate pharmacokinetic characteristics of the compounds.
There were three healthy 6-8-week-old male SD rats in each group.
Intravenous administration: A certain amount of drug was weighed, and then 10 vol % N,N-dimethylacetamide, 33 vol % triethylene glycol, and 57 vol % physiological saline were added to prepare 1 mg/mL colorless clear and transparent liquid;
Intragastric administration: A certain amount of drug was weighed, and then 0.5 wt % hydroxypropyl methylcellulose, 0.1 vol % tween 80, and 99.6 vol % physiological saline were added to prepare 1 mg/mL white suspension.
After fasting overnight, the SD rats were dosed intravenously or intragastrically.
The compounds provided in the present application were administered intravenously to the rats, then 0.2 mL of blood was collected from jugular veins respectively at 0.083, 0.25, 0.5, 1, 2, 4, 8, and 24 h after the administration, and placed in a test tube containing EDTA-K2. The test tube was then centrifuged at 4000 rpm at 4° C. for 5 min to separate plasma, and the plasma was stored at −75° C. Alternatively, the compounds provided in the present application were administered intragastrically to the rats, then 0.2 mL of blood was collected from jugular veins respectively at 0.25, 0.5, 1, 2, 4, 8, and 24 h after the administration, and placed in a test tube containing EDTA-K2. The test tube was then centrifuged at 3500 rpm at 4° C. for 10 min to separate plasma, and the plasma was stored at −75° C.
The content of the compounds to be tested in rat plasma after intravenous administration or intragastric administration at different concentrations was determined: 30 μL of rat plasma at each time after administration was taken, 200 μL (50 ng/mL) of solution of internal standard dexamethasone in acetonitrile was added, then the resulting mixture was vortex-mixed for 30 s, and centrifuged at 4700 rpm at 4° C. for 15 min, the supernatant of plasma samples was diluted three times with water, and 2.0 μL of diluted solution was taken for LC-MS/MS.

CYP2C9, sequence (P11712 whole entry): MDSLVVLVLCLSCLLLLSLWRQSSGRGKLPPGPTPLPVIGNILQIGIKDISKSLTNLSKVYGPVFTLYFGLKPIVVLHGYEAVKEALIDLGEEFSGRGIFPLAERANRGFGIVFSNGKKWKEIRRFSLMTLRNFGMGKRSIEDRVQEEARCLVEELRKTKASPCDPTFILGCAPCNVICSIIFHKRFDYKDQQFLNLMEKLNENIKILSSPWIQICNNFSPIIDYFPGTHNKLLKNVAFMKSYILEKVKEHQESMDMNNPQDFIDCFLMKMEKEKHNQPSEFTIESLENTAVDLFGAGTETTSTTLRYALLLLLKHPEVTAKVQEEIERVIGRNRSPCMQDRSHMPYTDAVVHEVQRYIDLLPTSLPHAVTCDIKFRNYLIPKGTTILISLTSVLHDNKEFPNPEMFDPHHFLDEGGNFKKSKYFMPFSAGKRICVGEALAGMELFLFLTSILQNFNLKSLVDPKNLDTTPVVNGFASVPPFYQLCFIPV

As for `COc1ncnc(C2CC2)c1-c1ncc2c(n1)N(Cc1ccc(-c3nc(C(F)(F)F)cn3C)cc1)CC(=O)N2C` [Compound 11, 2-(4-cyclopropyl-6-methoxypyrimidin-5-yl)-5-methyl-8-(4-(1-methyl-4-(trifluoromethyl)-1H-imidazol-2-yl)benzyl)-7,8-dihydropteridin-6(5H)-one], the pIC50 is 4.54 in series [1], 4.77 in series [2] and under 4.52 in series [3]. This molecule yielded a Papp A→B at 2 h, 5 μM in series [4] (Caco-2, 5 μM, 2 h, apical to basolateral) of 4.9 ×10⁻⁶ cm/s. Further, the Papp B→A at 2 h, 5 μM in series [4] (Caco-2, 5 μM, 2 h, basolateral to apical) turned out to be 17.6 ×10⁻⁶ cm/s. Moreover, the efflux ratio at 2 h, 5 μM in series [4] (Caco-2, Papp (B−A)/Papp (A−B)) stood at 3.6. The solubility at 2 h in series [5] is 214 µM (≈ 118 µg/mL). Besides, in series [6] (IV 1 mg/kg, read-out: Apparent volume of distribution Vss_obs), the Vd was 3.2 L/kg. Besides, the clearance in series [6] (IV 1 mg/kg, read-out: Clearance CL_obs) stood at 16.5 mL/min/kg. In addition, the half-life in series [6] (IV 1 mg/kg, read-out: Half-life period T1/2 (converted)) was 192 min. For the same molecule, in series [6] (PO 5 mg/kg versus IV, read-out: Bioavailability F), the bioavailability came to 96.3%. In series [6] (PO 5 mg/kg, read-out: Maximum plasma concentration Cmax), the Cmax was 1010 ng/mL.

By pIC50 is commonly meant the IC50 on a negative log10 scale, so that one unit is a factor of ten. Low readings indicate a large IC50, high ones a small IC50. A word on the Papp A→B: it is the apparent permeability from the apical to the basolateral side of a cell layer. A lower Papp A→B goes with poor permeation. Usually Papp B→A stands for how fast a substance crosses the layer from the basolateral side. The term efflux ratio denotes the permeability from basolateral to apical divided by that in the opposite direction, in the common usage. A word on the solubility: it is how much of the substance goes into solution per volume. Usually clearance stands for the volume of plasma or blood freed of the substance per unit of time. As usually defined, the bioavailability is dose-corrected exposure relative to a reference, in per cent.
